{"source": "patent US4281136A", "about": "“2-Alkyl-3-haloisothiazolium salts and their derivatives” (Givaudan Corporation, priority 1978, dated 1981)", "key": {"[1]": {"test_system": "Ps. aeruginosa", "test": "preservative for cutting oil emulsions", "type": "cell-based", "conditions": "for MIC: Pseudomonas aeruginosa; for Minimum Inhibitory Concentration: listed as CH3, Cl", "method": "Various aliquots of a 6% solution of the chemical in ethanol were added to cutting oil emulsions prepared by diluting Kutwell 30 cutting oil concentrate 1 to 30 with water. These samples were inoculated with a culture of Ps. aeruginosa and incubated at 28° on a rotary shaker. At weekly intervals the samples were examined for microorganisms and then reinoculated and incubated."}, "[2]": {"test_system": "Aureobasidium pullulans", "test": "preservative for latex paints", "type": "cell-based", "conditions": "three weeks, 27°-28°, listed as CH3, Cl, Cl, SbCl6", "method": "Various quantities of the chemical were incorporated into a white exterior vinyl acetate paint. Whatman #30 filter paper was painted with one coat of paint on each side. One inch squares were cut and placed in Petri dishes on a malt agar.\nThe surface of both the agar and the painted squares were inoculated with a spore suspension of Aureobasidium pullulans. The plates were examined for zones of inhibition and surface growth after three weeks incubation in a humidity chamber at 27°-28°.\nVarious quantities of 4,5-dichloro-2-methyl-4-isothiazolin-3-thione were incorporated into a white exterior vinyl acetate paint and tested as described in Example IV."}, "[3]": {"conditions": "168 h, read-out: Minimum Inhibitory Concentration, cutting oil emulsion, incubation 1 week, 28°"}, "[4]": {"conditions": "336 h, read-out: Minimum Inhibitory Concentration, cutting oil emulsion, incubation 2 weeks, 28°"}, "[5]": {"conditions": "504 h, read-out: Minimum Inhibitory Concentration, cutting oil emulsion, incubation 3 weeks, 28°"}, "[6]": {"conditions": "672 h, read-out: Minimum Inhibitory Concentration, cutting oil emulsion, incubation 4 weeks, 28°"}, "[7]": {"conditions": "168 h, cutting oil emulsion, incubation 1 week, 28°, read-out: Minimum Inhibitory Concentration"}, "[8]": {"conditions": "336 h, cutting oil emulsion, incubation 2 weeks, 28°, read-out: Minimum Inhibitory Concentration"}, "[9]": {"conditions": "504 h, cutting oil emulsion, incubation 3 weeks, 28°, read-out: Minimum Inhibitory Concentration"}, "[10]": {"conditions": "672 h, cutting oil emulsion, incubation 4 weeks, 28°, read-out: Minimum Inhibitory Concentration"}}, "note": "Where two headings read alike, the source gives them in different places.", "data": [{"smiles": "CCC[n+]1sccc1Cl", "note": "[No. 20 (Table I)]", "values": [{"measurement": "MIC", "setting": "[1]; [3]", "value": 125, "unit": "µg/mL"}, {"measurement": "MIC", "setting": "[1]; [4]", "value": 250, "unit": "µg/mL"}, {"measurement": "MIC", "setting": "[1]; [5]", "value": 250, "unit": "µg/mL"}, {"measurement": "MIC", "setting": "[1]; [6]", "value": 500, "unit": "µg/mL"}]}, {"smiles": "Cn1scc(Cl)c1=S", "note": "[No. 4 (Table VIII)]", "values": [{"measurement": "MIC", "setting": "[1]; [3]", "value": "< 32", "unit": "µg/mL"}, {"measurement": "MIC", "setting": "[1]; [4]", "value": 62, "unit": "µg/mL"}, {"measurement": "MIC", "setting": "[1]; [5]", "value": 62, "unit": "µg/mL"}, {"measurement": "MIC", "setting": "[1]; [6]", "value": 62, "unit": "µg/mL"}]}, {"smiles": "CC1=C(Cl)C(=C(C#N)C#N)N(C)S1", "note": "[drawing 12 CH3, Cl, CH3]", "values": [{"measurement": "MIC", "setting": "[1]; [7]", "value": 250, "unit": "µg/mL"}, {"measurement": "MIC", "setting": "[1]; [8]", "value": 500, "unit": "µg/mL"}, {"measurement": "MIC", "setting": "[1]; [9]", "value": 500, "unit": "µg/mL"}, {"measurement": "MIC", "setting": "[1]; [10]", "value": 1000, "unit": "µg/mL"}]}, {"smiles": "CCOC(=O)C1=C(Cl)C(=C(C#N)C#N)N(C)S1", "note": "[drawing 12 CH3, Cl, COOEt, 4-Chloro-3-dicyanomethylene-5-ethoxycarbonyl-2-methyl-4-isothiazoline]", "values": [{"measurement": "MIC", "setting": "[1]; [7]", "value": 125, "unit": "µg/mL"}, {"measurement": "MIC", "setting": "[1]; [8]", "value": 125, "unit": "µg/mL"}, {"measurement": "MIC", "setting": "[1]; [9]", "value": 125, "unit": "µg/mL"}, {"measurement": "MIC", "setting": "[1]; [10]", "value": 125, "unit": "µg/mL"}]}, {"smiles": "CC[n+]1sc(Cl)c(Cl)c1Cl.F[B-](F)(F)F", "note": "[No. 7 (Table I), 2-Ethyl-3,4,5-trichloroisothiazolium tetrafluoroborate]", "values": [{"measurement": "MIC", "setting": "[1]; [7]", "value": 4, "unit": "µg/mL"}, {"measurement": "MIC", "setting": "[1]; [8]", "value": 8, "unit": "µg/mL"}, {"measurement": "MIC", "setting": "[1]; [9]", "value": 8, "unit": "µg/mL"}, {"measurement": "MIC", "setting": "[1]; [10]", "value": 32, "unit": "µg/mL"}]}, {"smiles": "C[n+]1sc(Cl)c(Cl)c1Cl", "note": "[No. 3 (Table I), 2-Methyl-3,4,5-trichloroisothiazolium hexachloroantimonate]", "values": [{"measurement": "Minimum Inhibitory Concentration", "setting": "[1]; cutting oil emulsion, incubation 1 week, 28°, Cl, SbCl6", "value": 2, "unit": "µg/mL"}, {"measurement": "Minimum Inhibitory Concentration", "setting": "[1]; cutting oil emulsion, incubation 2 weeks, 28°, Cl, SbCl6", "value": 2, "unit": "µg/mL"}, {"measurement": "Minimum Inhibitory Concentration", "setting": "[1]; cutting oil emulsion, incubation 3 weeks, 28°, Cl, SbCl6", "value": 2, "unit": "µg/mL"}, {"measurement": "Minimum Inhibitory Concentration", "setting": "[1]; cutting oil emulsion, incubation 4 weeks, 28°, Cl, SbCl6", "value": 64, "unit": "µg/mL"}, {"measurement": "Zone (zone of inhibition)", "setting": "[2]; Conc. 0.25% in vinyl acetate paint", "value": 20, "unit": "mm"}, {"measurement": "Zone (zone of inhibition)", "setting": "[2]; Conc. 0.5% in vinyl acetate paint", "value": 20, "unit": "mm"}]}, {"smiles": "CCOC(=O)c1sn(C)c(=S)c1Cl", "note": "[No. 5 (Table VIII)]", "values": [{"measurement": "MIC", "setting": "[1]; [7]", "value": 250, "unit": "µg/mL"}, {"measurement": "MIC", "setting": "[1]; [8]", "value": 125, "unit": "µg/mL"}, {"measurement": "MIC", "setting": "[1]; [9]", "value": 125, "unit": "µg/mL"}, {"measurement": "MIC", "setting": "[1]; [10]", "value": 62, "unit": "µg/mL"}]}, {"smiles": "CN1SC=C(Cl)C1=C(C#N)C#N", "note": "[drawing 12 CH3, Cl, H]", "values": [{"measurement": "MIC", "setting": "[1]; [7]", "value": "< 32", "unit": "µg/mL"}, {"measurement": "MIC", "setting": "[1]; [8]", "value": "< 32", "unit": "µg/mL"}, {"measurement": "MIC", "setting": "[1]; [9]", "value": "< 32", "unit": "µg/mL"}, {"measurement": "MIC", "setting": "[1]; [10]", "value": "< 32", "unit": "µg/mL"}]}, {"smiles": "Cn1sccc1=S", "note": "[No. 3 (Table VIII)]", "values": [{"measurement": "MIC", "setting": "[1]; [3]", "value": 125, "unit": "µg/mL"}, {"measurement": "MIC", "setting": "[1]; [4]", "value": 250, "unit": "µg/mL"}, {"measurement": "MIC", "setting": "[1]; [5]", "value": 250, "unit": "µg/mL"}, {"measurement": "MIC", "setting": "[1]; [6]", "value": 250, "unit": "µg/mL"}]}, {"smiles": "C[n+]1sc(Cl)c(Cl)c1Cl.O=S(=O)([O-])C(F)(F)F", "note": "[No. 4 (Table I), 2-Methyl-3,4,5-trichloroisothiazolium trifluoromethane sulfonate]", "values": [{"measurement": "MIC", "setting": "[1]; [3]", "value": 2, "unit": "µg/mL"}, {"measurement": "MIC", "setting": "[1]; [4]", "value": 2, "unit": "µg/mL"}, {"measurement": "MIC", "setting": "[1]; [5]", "value": 16, "unit": "µg/mL"}, {"measurement": "MIC", "setting": "[1]; [6]", "value": 64, "unit": "µg/mL"}]}, {"smiles": "Cn1sc(C#N)c(Cl)c1=S", "note": "[No. 6 (Table VIII)]", "values": [{"measurement": "MIC", "setting": "[1]; [7]", "value": 16, "unit": "µg/mL"}, {"measurement": "MIC", "setting": "[1]; [8]", "value": 125, "unit": "µg/mL"}, {"measurement": "MIC", "setting": "[1]; [9]", "value": 250, "unit": "µg/mL"}, {"measurement": "MIC", "setting": "[1]; [10]", "value": 250, "unit": "µg/mL"}]}, {"smiles": "C[n+]1sccc1Cl.O=[N+]([O-])[O-]", "note": "[No. 15 (Table I), 2-Methyl-3-chloroisothiazolium nitrate]", "values": [{"measurement": "MIC", "setting": "[1]; [3]", "value": 8, "unit": "µg/mL"}, {"measurement": "MIC", "setting": "[1]; [4]", "value": 8, "unit": "µg/mL"}, {"measurement": "MIC", "setting": "[1]; [5]", "value": 8, "unit": "µg/mL"}, {"measurement": "MIC", "setting": "[1]; [6]", "value": 8, "unit": "µg/mL"}]}, {"smiles": "C[n+]1sccc1Cl", "note": "[No. 17 (Table I)]", "values": [{"measurement": "Minimum Inhibitory Concentration", "setting": "[1]; cutting oil emulsion, incubation 1 week, 28°, H, PF6", "value": 32, "unit": "µg/mL"}, {"measurement": "Minimum Inhibitory Concentration", "setting": "[1]; cutting oil emulsion, incubation 2 weeks, 28°, H, PF6", "value": 32, "unit": "µg/mL"}, {"measurement": "Minimum Inhibitory Concentration", "setting": "[1]; cutting oil emulsion, incubation 3 weeks, 28°, H, PF6", "value": 32, "unit": "µg/mL"}, {"measurement": "Minimum Inhibitory Concentration", "setting": "[1]; cutting oil emulsion, incubation 4 weeks, 28°, H, PF6", "value": 32, "unit": "µg/mL"}]}, {"smiles": "CCN1SC=CC1=C(C#N)C#N", "note": "[drawing 12 CH2CH3, H, H]", "values": [{"measurement": "MIC", "setting": "[1]; [7]", "value": 125, "unit": "µg/mL"}, {"measurement": "MIC", "setting": "[1]; [8]", "value": 250, "unit": "µg/mL"}, {"measurement": "MIC", "setting": "[1]; [9]", "value": 250, "unit": "µg/mL"}, {"measurement": "MIC", "setting": "[1]; [10]", "value": 500, "unit": "µg/mL"}]}, {"smiles": "CCC[n+]1sc(Cl)c(Cl)c1Cl.O=S(=O)([O-])C(F)(F)F", "note": "[No. 10 (Table I), 2-Propyl-3,4,5-trichloroisothiazolium trifluoromethane sulfonate]", "values": [{"measurement": "MIC", "setting": "[1]; [7]", "value": "< 32", "unit": "µg/mL"}, {"measurement": "MIC", "setting": "[1]; [8]", "value": "< 32", "unit": "µg/mL"}, {"measurement": "MIC", "setting": "[1]; [9]", "value": "< 32", "unit": "µg/mL"}, {"measurement": "MIC", "setting": "[1]; [10]", "value": "< 32", "unit": "µg/mL"}]}]}
